Results taken from patent US20150079158A1, “METHOD TO STABILIZE LIPOSOME EMULSIONS FOR BIOCIDAL DELIVERY” (General Electric Company, priority 2012, published 2015).

Assay: HPLC analysis of active degradation after accelerated storage
Format: physicochemical
Experimental: The degradation of the biocide-containing liposome emulsion can be qualitatively observed by the formation of an insoluble precipitate. Quantitatively, high pressure liquid chromatography (HPLC) analysis was used to determine actives concentrations for samples stored under accelerated storage conditions. The samples that passed 90 days at 35° C. or 30 days at 50° C. were taken to ambient temperature and analyzed. The stability of these liposome emulsions was determined as follows.
HPLC analysis was executed for active degradation of 5-chloro-2-methyl-4-isothiazolin-3-one and 2-methyl-4-isothiazolin-3-one in the samples after 90 days at 35° C. or 30 days at 50° C.

- active degradation (HPLC): less than 10%
SMILES: Cn1sccc1=O [2-methyl-4-isothiazolin-3-one]
